Measurements as given in patent publication US20250197409A1, “BIFUNCTIONAL COMPOUND AND PHARMACEUTICAL COMPOSITION COMPRISING THE BIFUNCTIONAL COMPOUND, AND METHOD FOR TREATING ANDROGEN RECEPTOR RELATED DISEASE BY USING THE SAME” (ANHORN MEDICINES CO., LTD., priority 2022, published 2025).
Read-outs that look alike come from different tables or passages of the source.

Biological target: T1, androgen receptor (Homo sapiens, UniProt P10275, T878A)
T1 construct: host or cells: LNCaP.FGC
Experiment: Androgen receptor degradation assay using Western blot analysis
Assay type: cell-based
Experimental: Cells not treated with any of the above-mentioned compounds are used as a negative control.
The internal loading control GAPDH was detected using a mouse monoclonal antibody (1:5000) (GTX627408, GeneTex International Corp., HsinChu City, Taiwan R.O.C.) and a goat anti-mouse HRP-conjugated secondary antibody (1:5000 dilution) (C04001, Croyez Bioscience Co., Ltd., Taipei City, Taiwan R.O.C.).
AR remaining percentage was determined by the intensity difference of AR signals (each was normalized by the corresponding internal loading control GAPDH) between the protein samples from the untreated cells (100%) and those from the treated cells. “Cpd. #” indicates the compound number hereinabove.
In addition, several compounds were selected to prepare a treatment stock solutions at 100 nM in RPMI medium. The treatment stock solutions were separately serially diluted (10×) with RPMI medium for treating LNCaP.FGC cells seeded with 2×10^5 cells per well in 24-well tissue culture plates. A calibration curve was determined by the serial diluted samples for each compound, and the concentration needed for 50% AR degradation (AR DC50) for each compound was calculated.

[1] = 24 h, read-out: Androgen Receptor Remaining (%), LNCaP.FGC cells, 100 nM, 24 hr, normalized to GAPDH, untreated cells = 100%
[2] = 24 h, LNCaP.FGC cells, 100 nM, 24 hr, normalized to GAPDH, untreated cells = 100%; read-out: Androgen Receptor Remaining (%)
[3] = read-out: AR DC50 (concentration needed for 50% AR degradation); LNCaP.FGC cells, serial 10x dilutions from 100 nM
[4] = LNCaP.FGC cells, serial 10x dilutions from 100 nM; read-out: AR DC50 (concentration needed for 50% AR degradation)

T1 sequence (P10275 whole entry T878A): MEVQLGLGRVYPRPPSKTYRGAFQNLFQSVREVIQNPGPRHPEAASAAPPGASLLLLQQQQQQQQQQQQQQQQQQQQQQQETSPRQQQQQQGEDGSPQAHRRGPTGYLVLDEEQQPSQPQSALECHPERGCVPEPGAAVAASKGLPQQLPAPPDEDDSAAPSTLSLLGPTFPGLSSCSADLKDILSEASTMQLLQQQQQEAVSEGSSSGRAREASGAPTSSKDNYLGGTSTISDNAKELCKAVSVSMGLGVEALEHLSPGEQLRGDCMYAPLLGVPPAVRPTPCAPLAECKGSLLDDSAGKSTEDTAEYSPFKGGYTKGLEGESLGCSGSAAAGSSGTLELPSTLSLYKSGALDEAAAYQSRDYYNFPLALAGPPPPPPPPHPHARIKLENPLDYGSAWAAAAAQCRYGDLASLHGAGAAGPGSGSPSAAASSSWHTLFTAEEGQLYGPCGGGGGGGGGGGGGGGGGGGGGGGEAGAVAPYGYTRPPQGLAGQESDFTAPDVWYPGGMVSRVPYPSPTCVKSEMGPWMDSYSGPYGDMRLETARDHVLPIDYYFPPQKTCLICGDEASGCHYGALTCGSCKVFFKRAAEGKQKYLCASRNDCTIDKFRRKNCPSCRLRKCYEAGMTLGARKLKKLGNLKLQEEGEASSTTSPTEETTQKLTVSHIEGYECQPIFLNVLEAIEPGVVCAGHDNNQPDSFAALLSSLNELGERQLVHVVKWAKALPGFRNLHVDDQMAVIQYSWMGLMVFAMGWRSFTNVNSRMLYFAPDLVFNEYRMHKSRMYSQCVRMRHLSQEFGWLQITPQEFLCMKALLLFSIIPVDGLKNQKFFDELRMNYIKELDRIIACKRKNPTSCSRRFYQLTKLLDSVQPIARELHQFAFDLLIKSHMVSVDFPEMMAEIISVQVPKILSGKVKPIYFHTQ
T1 sequence (Q96SW2 whole entry partner): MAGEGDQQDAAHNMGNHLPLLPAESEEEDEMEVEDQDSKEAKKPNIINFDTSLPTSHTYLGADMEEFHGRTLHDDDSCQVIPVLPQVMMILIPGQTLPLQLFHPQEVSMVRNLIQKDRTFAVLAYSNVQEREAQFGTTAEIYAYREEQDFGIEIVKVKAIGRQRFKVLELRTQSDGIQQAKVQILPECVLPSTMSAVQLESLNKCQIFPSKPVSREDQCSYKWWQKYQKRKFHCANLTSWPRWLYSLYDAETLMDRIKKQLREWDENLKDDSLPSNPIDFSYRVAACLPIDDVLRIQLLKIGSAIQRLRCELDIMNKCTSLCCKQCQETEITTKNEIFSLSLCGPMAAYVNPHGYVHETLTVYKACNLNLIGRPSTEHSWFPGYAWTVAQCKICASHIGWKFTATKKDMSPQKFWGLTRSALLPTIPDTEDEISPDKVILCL

Row | Structure (SMILES) | remaining activity at 0.1 µM [1] [%] | DC50 [3] [nM] | other results
1 | CCn1c2c(c3ccc(OCCCN4CCN(c5ccc(C(=O)N[C@H]6C(C)(C)[C@H](Oc7ccc(C#N)c(Cl)c7)C6(C)C)nn5)CC4)cc31)C(=O)N(C1CCC(=O)NC1=O)C2=O (some centres unmarked) [Compound 37] | 55 | – | –
2 | CCn1c2c(c3ccc(OCCCN4CCN(c5ccc(C(=O)N[C@H]6CC[C@H](Oc7ccc(C#N)c(Cl)c7)CC6)cc5)CC4)cc31)C(=O)N(C1CCC(=O)NC1=O)C2=O (some centres unmarked) [Compound 27] | 107 | – | –
3 | Cn1c2c(c3cc(OCCN4CCN(c5ccc(C(=O)N[C@H]6C(C)(C)[C@H](Oc7ccc(C#N)c(Cl)c7)C6(C)C)cn5)CC4)ccc31)C(=O)N(C1CCC(=O)NC1=O)C2=O (some centres unmarked) [Compound 19] | – | – | remaining activity at 0.1 µM [2]: 73%
4 | CCn1c2c(c3ccc(OCC(=O)N4CC5(CCN(c6ccc(C(=O)N[C@H]7CC[C@H](N(C)c8ccc(C#N)c(Cl)c8)CC7)nn6)C5)C4)cc31)C(=O)N(C1CCC(=O)NC1=O)C2=O (some centres unmarked) [Compound 146] | 62 | – | –
5 | CCn1c2c(c3ccc(OCCN4CCN(c5cnc(C(=O)N[C@H]6CC[C@H](Oc7ccc(C#N)c(Cl)c7)CC6)cn5)CC4)cc31)C(=O)N(C1CCC(=O)NC1=O)C2=O (some centres unmarked) [Compound 62] | 65 | – | –
6 | CCn1c2c(c3ccc(OCCOC4CCN(c5ccc(C(=O)N[C@H]6CC[C@H](N(C)c7ccc(C#N)c(Cl)c7)CC6)nn5)CC4)cc31)C(=O)N(C1CCC(=O)NC1=O)C2=O (some centres unmarked) [Compound 154] | 33 | 10 to 25 | –
7 | Cn1c2c(c3ccc(OCCCN4CCN(c5ccc(C(=O)N[C@H]6CC[C@H](Oc7ccc(C#N)c(Cl)c7)CC6)nn5)CC4)cc31)C(=O)N(C1CCC(=O)NC1=O)C2=O (some centres unmarked) [Compound 207] | – | – | DC50 [4]: < 10 nM
8 | CCn1c2c(c3ccc(OCCN4CCC5(CC4)CN(c4ccc(C(=O)N[C@H]6CC[C@H](Oc7ccc(C#N)c(Cl)c7)CC6)nn4)C5)cc31)C(=O)N(C1CCC(=O)NC1=O)C2=O (some centres unmarked) [Compound 81] | 9 | < 10 | –
9 | CCn1c2c(c3cc(OCCN4CCN(c5ccc(C(=O)N[C@H]6C(C)(C)[C@H](Oc7ccc(C#N)c(Cl)c7)C6(C)C)cn5)CC4)ccc31)C(=O)N(C1CCC(=O)NC1=O)C2=O (some centres unmarked) [Compound 5] | 51 | – | –
10 | CCn1c2c(c3cc(OCCN4CCN(c5ccc(C(=O)N[C@H]6C(C)(C)[C@H](Oc7ccc(C#N)c(Cl)c7)C6(C)C)cc5)CC4)ccc31)C(=O)N(C1CCC(=O)NC1=O)C2=O (some centres unmarked) [Compound 4] | 66 | – | –
11 | CCn1c2c(c3ccc(OCCCCN4CCN(c5ccc(C(=O)N[C@H]6CC[C@H](Oc7ccc(C#N)c(Cl)c7)CC6)nn5)CC4)cc31)C(=O)N(C1CCC(=O)NC1=O)C2=O (some centres unmarked) [Compound 89] | 7 | < 10 | –
12 | Cn1c2c(c3ccc(OCCCN4CCCN(c5ccc(C(=O)N[C@H]6CC[C@H](Oc7ccc(C#N)c(Cl)c7)CC6)nn5)CC4)cc31)C(=O)N(C1CCC(=O)NC1=O)C2=O (some centres unmarked) [Compound 87] | – | – | remaining activity at 0.1 µM [2]: 21%; DC50 [4]: 25 to 100 nM
13 | CCn1c2c(c3ccc(OCC(=O)N4CCN(c5ccc(C(=O)N[C@H]6CC[C@H](Oc7ccc(C#N)c(Cl)c7)CC6)nn5)CC4)cc31)C(=O)N(C1CCC(=O)N(CO)C1=O)C2=O (some centres unmarked) [Compound 120] | 48 | 25 to 100 | –
14 | CCn1c2c(c3ccc(OCCCN4CCN(c5cnc(C(=O)N[C@H]6CC[C@H](Oc7ccc(C#N)c(Cl)c7)CC6)cn5)CC4)cc31)C(=O)N(C1CCC(=O)NC1=O)C2=O (some centres unmarked) [Compound 61] | 96 | – | –
15 | Cn1c2c(c3ccc(OCCN4CC=C(c5ccc(C(=O)N[C@H]6CC[C@H](Oc7ccc(C#N)c(Cl)c7)CC6)nn5)CC4)cc31)C(=O)N(C1CCC(=O)NC1=O)C2=O (some centres unmarked) [Compound 197] | – | – | DC50 [4]: 10 to 25 nM
16 | CCn1c2c(c3ccc(OCC(=O)N4CCCN(c5ccc(C(=O)N[C@H]6CC[C@H](N(C)c7ccc(C#N)c(Cl)c7)CC6)nn5)CC4)cc31)C(=O)N(C1CCC(=O)NC1=O)C2=O (some centres unmarked) [Compound 131] | 51 | – | –
17 | CCn1c2c(c3ccc(OCCN4CCC5(CC4)CCN(c4ccc(C(=O)N[C@H]6CC[C@H](N(C)c7ccc(C#N)c(Cl)c7)CC6)nn4)CC5)cc31)C(=O)N(C1CCC(=O)NC1=O)C2=O (some centres unmarked) [Compound 180] | – | < 10 | –
18 | Cn1c2c(c3ccc(OCCCN4CCC5(CC4)CN(c4ccc(C(=O)N[C@H]6CC[C@H](Oc7ccc(C#N)c(Cl)c7)CC6)nn4)C5)cc31)C(=O)N(C1CCC(=O)NC1=O)C2=O (some centres unmarked) [Compound 92] | – | – | remaining activity at 0.1 µM [2]: 6%; DC50 [4]: 25 to 100 nM
19 | CCn1c2c(c3ccc(OCCCN4CCCN(c5ccc(C(=O)N[C@H]6C(C)(C)[C@H](Oc7ccc(C#N)c(Cl)c7)C6(C)C)nn5)CC4)cc31)C(=O)N(C1CCC(=O)NC1=O)C2=O (some centres unmarked) [Compound 54] | 72 | – | –

Row | Structure (SMILES) | remaining activity at 0.1 µM [1] [%] | DC50 [3] [nM] | other results
20 | Cn1c2c(c3ccc(OCCCOC4CC5(CCN(c6ccc(C(=O)N[C@H]7CC[C@H](Oc8ccc(C#N)c(Cl)c8)CC7)nn6)C5)C4)cc31)C(=O)N(C1CCC(=O)NC1=O)C2=O (some centres unmarked) [Compound 179] | – | – | DC50 [4]: 25 to 100 nM
21 | CCn1c2c(c3ccc(OCCCN4CCN(c5ccc(C(=O)N[C@H]6CC[C@H](Oc7ccc(C#N)c(Cl)c7)CC6)nn5)C[C@H]4C)cc31)C(=O)N(C1CCC(=O)NC1=O)C2=O (some centres unmarked) [Compound 74] | 40 | 25 to 100 | –
22 | CCn1c2c(c3ccc(OCCCCCN4CCN(c5ccc(C(=O)N[C@H]6CC[C@H](N(C)c7ccc(C#N)c(Cl)c7)CC6)nn5)CC4)cc31)C(=O)N(C1CCC(=O)NC1=O)C2=O (some centres unmarked) [Compound 116] | 37 | 25 to 100 | –
23 | CCn1c2c(c3ccc(OCCCN4CC5(CCN(c6ccc(C(=O)N[C@H]7CC[C@H](Oc8ccc(C#N)c(Cl)c8)CC7)nn6)CC5)C4)cc31)C(=O)N(C1CCC(=O)N(COCC[Si](C)(C)C)C1=O)C2=O (some centres unmarked) [Compound 94] | 89 | – | –
24 | N#Cc1ccc(O[C@H]2CC[C@H](NC(=O)c3ccc(N4CCN(CCOc5ccc6c7c(n(CC(F)F)c6c5)C(=O)N(C5CCC(=O)NC5=O)C7=O)CC4)nn3)CC2)cc1Cl (some centres unmarked) [Compound 105] | 42 | 25 to 100 | –
25 | Cn1c2c(c3ccc(OCCN4CCC(c5ncc(C(=O)N[C@H]6CC[C@H](Oc7ccc(C#N)c(Cl)c7)CC6)cn5)CC4)cc31)C(=O)N(C1CCC(=O)NC1=O)C2=O (some centres unmarked) [Compound 45] | – | – | DC50 [4]: 25 to 100 nM
26 | Cn1c2c(c3ccc(OCCCN4CC=C(c5ccc(C(=O)N[C@H]6CC[C@H](Oc7ccc(C#N)c(Cl)c7)CC6)nn5)CC4)cc31)C(=O)N(C1CCC(=O)NC1=O)C2=O (some centres unmarked) [Compound 196] | – | – | DC50 [4]: < 10 nM
27 | CCn1c2c(c3ccc(OC(=O)NC4CCN(c5ccc(C(=O)N[C@H]6CC[C@H](N(C)c7ccc(C#N)c(Cl)c7)CC6)nn5)CC4)cc31)C(=O)N(C1CCC(=O)NC1=O)C2=O (some centres unmarked) [Compound 144] | 86 | – | –
28 | CC[C@H]1CN(CCOc2ccc3c4c(n(CC)c3c2)C(=O)N(C2CCC(=O)NC2=O)C4=O)CCN1c1ccc(C(=O)N[C@H]2CC[C@H](Oc3ccc(C#N)c(Cl)c3)CC2)nn1 (some centres unmarked) [Compound 58] | 65 | – | –
29 | CCn1c2c(c3ccc(OCCN4CCN(c5ccc(C(=O)N[C@H]6C(C)(C)[C@H](Oc7ccc(C#N)c(Cl)c7)C6(C)C)cc5)CC4)cc31)C(=O)N(C1CCC(=O)NC1=O)C2=O (some centres unmarked) [Compound 30] | 56 | – | –
30 | Cn1c2c(c3ccc(OCCCN4CCN(c5ccc(C(=O)N[C@H]6C(C)(C)[C@H](Oc7ccc(C#N)c(Cl)c7)C6(C)C)cc5)CC4)cc31)C(=O)N(C1CCC(=O)NC1=O)C2=O (some centres unmarked) [Compound 12] | – | – | remaining activity at 0.1 µM [2]: 42%; DC50 [4]: 25 to 100 nM
31 | CCn1c2c(c3ccc(OCCN4C[C@H](C)N(c5ccc(C(=O)N[C@H]6CC[C@H](Oc7ccc(C#N)c(Cl)c7)CC6)nn5)C[C@H]4C)cc31)C(=O)N(C1CCC(=O)NC1=O)C2=O (some centres unmarked) [Compound 55] | 40 | 25 to 100 | –
32 | CCn1c2c(c3ccc(OCC(=O)NCC4CCN(c5ccc(C(=O)N[C@H]6CC[C@H](N(C)c7ccc(C#N)c(Cl)c7)CC6)nn5)CC4)cc31)C(=O)N(C1CCC(=O)C(CO)C1=O)C2=O (some centres unmarked) [Compound 141] | 49 | 25 to 100 | –
33 | CCn1c2c(c3ccc(OCCCOC4CCN(c5ccc(C(=O)N[C@H]6CC[C@H](Oc7ccc(C#N)c(Cl)c7)CC6)nn5)CC4)cc31)C(=O)N(C1CCC(=O)NC1=O)C2=O (some centres unmarked) [Compound 159] | 8 | 25 to 100 | –
34 | CCn1c2c(c3ccc(OC4CCN(CC5CN(c6ccc(C(=O)N[C@H]7CC[C@H](Oc8ccc(C#N)c(Cl)c8)CC7)nn6)C5)CC4)cc31)C(=O)N(C1CCC(=O)NC1=O)C2=O (some centres unmarked) [Compound 210] | – | 10 to 25 | –
35 | CCn1c2c(c3ccc(OCCN4CCCN(c5ccc(C(=O)N[C@H]6CC[C@H](N(C)c7ccc(C#N)c(Cl)c7)CC6)nn5)CC4)cc31)C(=O)N(C1CCC(=O)NC1=O)C2=O (some centres unmarked) [Compound 110] | 34 | 10 to 25 | –
36 | Cn1c2c(c3cccc(OCCCN4CCN(c5ccc(C(=O)N[C@H]6C(C)(C)[C@H](Oc7ccc(C#N)c(Cl)c7)C6(C)C)cc5)CC4)c31)C(=O)N(C1CCC(=O)NC1=O)C2=O (some centres unmarked) [Compound 25] | – | – | remaining activity at 0.1 µM [2]: 80%
37 | CCn1c2c(c3ccc(OCCOC4CC5(CCN(c6ccc(C(=O)N[C@H]7CC[C@H](Oc8ccc(C#N)c(Cl)c8)CC7)nn6)CC5)C4)cc31)C(=O)N(C1CCC(=O)NC1=O)C2=O (some centres unmarked) [Compound 147] | 46 | 10 to 25 | –
38 | CCn1c2c(c3ccc(OCCN4CCN(c5ccc(C(=O)N[C@H]6CC[C@H](Oc7ccc(C#N)c(Cl)c7)CC6)nn5)[C@@H](C)C4)cc31)C(=O)N(C1CCC(=O)NC1=O)C2=O (some centres unmarked) [Compound 57] | 53 | – | –
